From patent US7371834B2, “Apoptosis-inducing factor” (Amgen Inc., priority 1998, dated 2008)
Peptide text beside a SMILES is read from it. * marks the point of attachment. Cbz = O=C(OCc1ccccc1)*; CH2F = FC*

Legend:
HeLa nuclei = test: Pulse field gel electrophoresis of DNA from AIF-treated HeLa nuclei; type: biochemical; conditions: 90 min with 100 ng AIF; 200 μM p-chloromercuryphenylsulfonic acid, 200 μM Z-VAD.fmk, 5 mM EDTA
Method: In addition, each nuclear preparation was assessed for the frequency of hypoploid nuclei as in A.
(§1) 2B4.11 T cell hybridoma cells stably transfected with a SFFV.neo vector containing the human bcl-2 gene or the neomycin resistance gene (Neo) only [Susin et al., J. Exp. Med. 184:1331-1342 (1996)] were subjected to mechanical lysis and differential centrifugation for the subsequent recovery of nuclei, mitochondria, and organelle-free cytosols [Liu et al. Cell 86:147-157 (1996)]. Submitochondrial fractionation of mouse liver mitochondria was controlled by the determination of suitable marker enzymes [Susin et al., J. Exp. Med. 186:25-37 (1997); Pedersen et al., Meth. Cell Biol. 20:411-481 (1978)]. Purified HeLa cell nuclei were exposed to different preparations of AIF, and nuclear apoptosis was quantitated by staining with DNA-intercalating propidium iodide and cytofluorometric determination of DNA content [Susin et al., J. Exp. Med. 186:25-37 (1997)]. Alternatively, nuclei were stained with Hoechst 33342 dye or subjected to DNA extraction and pulse field gel electrophoresis. […] The release of cytochrome c and caspase-9 into the supernatant was measured by immunoblot using a monoclonal anti-cytochrome c antibody (7H8.2C12, Pharmingen), or a rabbit antibody directed against the large subunit of caspase-9 (Hazelton Research Products Inc., Denver, Pa.).

caspase = test: Cleavage of caspase substrate by mitochondrial supernatants; type: biochemical
Method: The same mitochondrial supernatants as in FIG. 3F were tested for their capacity to cleave the caspase substrate Z-VAD.afc, leading to the generation of the fluorochrome afc. The 100% value refers to the enzymatic activity obtained by osmotic lysis of mitochondria

isolated mitochondria = test: Release of cytochrome c and caspase-9 from isolated mitochondria (immunoblot of supernatants); type: biochemical, rat; conditions: rec. AIF+cytosol+Z-VAD.fmk
Method: Isolated mitochondria were subjected to osmotic lysis (1) or treated as in A (15 min) with buffer only (2), rec. AIF (3), cytosol (4), rec. AIF+cytosol (5), or rec. AIF+cytosol+Z-VAD.fmk (6) and their supernatants were subjected to immunoblot analysis of cytochrome c and caspase-9.
as §1, with “Cell Biol. 20:411-481 (1978)].” left out, “(1997)].” for “(1997)]. Alternatively, nuclei were stained with Hoechst 33342 dye or subjected to DNA extraction and pulse field gel electrophoresis.”

[1] = tested on: purified rat liver mitochondria; test: Large amplitude swelling of purified mitochondria; type: biochemical; conditions: Z-VAD.fmk 100-200 μM
Method: Purified rat liver mitochondria were monitored continuously for large amplitude swelling. Arrows indicate the addition of Ca^2+(200 μM; positive control), AIF (100 ng/ml), cytosol (100 μg protein per ml), and/or Z-VAD.fmk (100 μM, pre-added to the cytosol/AIF mixture). Note that only the combined addition of AIF plus cytosol (right panel) causes mitochondrial swelling.
as §1, with “Submitochondrial fractionation of mouse liver mitochondria was controlled by the determination of suitable marker enzymes [Susin et al., J. Exp. Med. 186:25-37 (1997); Pedersen et al., Meth. Cell Biol. 20:411-481 (1978)].” left out, “(1997)].” for “(1997)]. Alternatively, nuclei were stained with Hoechst 33342 dye or subjected to DNA extraction and pulse field gel electrophoresis.”

Rat-1 cells [2] = test: Microinjection into the cytoplasm of Rat-1 cells, quantitation of apoptosis; type: cell-based; conditions: 100 μM Z-VAD.fmk
Method: FIGS. 4A-4D show the effects of AIF on intact cells. […] Buffer only or recombinant AIF (10 μM) were injected into the cytoplasm of Rat-1 cells, which were cultured for 90 min in the absence or presence of 100 μM Z-VAD.fmk (added 15 min before injection). Microinjected cells could be identified because the injectate contained FITC-dextran (green fluorescence not shown). Representative (three independent experiments, 100-200 microinjected cells per session) microphotographs of viable cells stained with the DYm-sensitive dye CMXRos and Hoechst 33342 (as in FIG. 2E., upper panels) or Annexin-V, which labels surface-exposed phosphatidylserine residues (red fluorescence in lower panels).
(§2) Rat-1 fibroblast cells were microinjected (pressure 150 hPa; 0.2 sec; Marzo et al., Science 281:2027-2031 (1998)) with buffer only, atractyloside (50 μM), dialyzed antisera, AIF-derived peptides (100 μM), horse cytochrome c (Sigma), or the indicated dose of recombinant mAIF. The caspase inhibitor Z-VAD.fmk (100 μM; Bachem, Basel Switzerland) was added to the culture medium 30 min before microinjection into the cytoplasm (pressure 150 hPa; 0.2 sec). […] Microinjected viable cells (100-200 per session, two to three independent sessions of injection) were identified by inclusion of 0.25% (w:v) FITC-dextran (green fluorescence) in the injectate. Only the blue or red fluorescence was recorded. […]

mouse liver mitochondria = test: AIF liberation from mitochondria by PT pore opening (Western blot of supernatants); type: biochemical; conditions: 5 mM atractyloside, 200 μM Ca2+
Method: FIGS. 2A-2F show the submitochondrial and subcellular distribution of AIF in normal and apoptotic cells. […] Western blots were performed on total mouse liver mitochondrion lysate (1), proteins from the matrix (2), inner membrane (3), intermembrane space (4), outer membrane (5), the supernatant of untreated mitochondria (6), or that of mitochondria treated with 5 mM atractyloside (7), 200 μM Ca^2+ (8), 1 μM cyclosporin A (9), atractyloside+CsA (10), or Ca^2++cyclosporin A (11). In addition, the supernatant of atractyloside-treated mitochondria was sham-immunodepleted using a pre-immune serum (12), or AIF-immunodepleted in the absence (13) or presence (14) of AIF-derived immunogenic peptides (see Example 2, below) capable of blocking the AIF antiserum. Aliquots of each preparation were tested for their capacity to induce nuclear hypoploidy in isolated HeLa nuclei.

Rat-1 cells [3] = test: Microinjection of anti-AIF antiserum into Rat-1 cells treated with atractyloside or staurosporin; type: cell-based; conditions: for retention of DYm-sensitive dye CMXRos by cells: atractyloside 50 μM injected, staurosporin 1 μM, 120 min
Method: Rat-1 cells were microinjected with atractyloside (ATR, 50 μM) alone, or atractyloside diluted in control serum, anti-AIF antiserum, and/or 100 μM AIF-derived immunogenic peptides. 180 min after microinjection, cells were stained with Hoechst 33342 and CMXRos (as in FIG. 4A, upper panel). Alternatively, cells were cultured for 120 min with staurosporin (1 μM, as in FIGS. 2C-2E), added to the culture medium after microinjection of control antiserum or anti-AIF.
Rat-1 fibroblast cells were microinjected (pressure 150 hPa; 0.2 sec; Marzo et al., Science 281:2027-2031 (1998)) with buffer only, atractyloside (50 μM), dialyzed antisera, AIF-derived peptides (100 μM), horse cytochrome c (Sigma), or the indicated dose of recombinant mAIF. The caspase inhibitor Z-VAD.fmk (100 μM; Bachem, Basel Switzerland) was added to the culture medium 30 min before microinjection into the cytoplasm (pressure 150 hPa; 0.2 sec). […] Microinjected viable cells (100-200 per session, two to three independent sessions of injection) were identified by inclusion of 0.25% (w:v) FITC-dextran (green fluorescence) in the injectate. Only the blue or red fluorescence was recorded. Transfection of Jurkat T lymphoma cells was performed using AIF cloned in pcDNA3.1 (Invitrogen) vector and Lipofectamine® (Gibco Life Technologies). Cytofluorometric analyses of apoptosis-associated parameters were performed as described [Kroemer et al., “Detection of apoptosis and apoptosis associated alterations,” “The Immunology Methods Manual” (Lefkovitz, R. Ed.); Academic Press, Chapter 14.2., pp. 1111-1125 (1997)].

Rat-1 fibroblasts = test: Nuclear phenotype of staurosporine-treated Rat-1 fibroblasts; type: cell-based; conditions: Neo cells; staurosporine 1 μM, 2 h
Source text: In Neo cells, staurosporine treatment leads to the generation of two phenotypes, one with partial chromatin condensation (˜80% of cells, stage I), and another with more advanced chromatin condensation and nuclear fragmentation (˜20% of cells, stage II), as identified by phase contrast microscopy or counter-staining with Hoechst 33342 (not shown). Arrow heads are placed in the center of the nucleus.
Specifically, Rabbit antiserum was generated against a mixture of 3 peptides derived from the mAIF amino acid sequence (amino acid nos. 151-170, 166-185, 181-200, coupled to KLH). This antiserum (ELISA titer ˜10.000) was used in immunoblots (1/2000) and on paraformaldehyde/picrylic acid-fixed [Bossy-Wetzel et al., EMBO J. 17:37-49 (1998)] […] Cytochrome c was detected by immunofluorescence (mAb 6H2.B4 from Pharmingen) in fixed Rat-1 cells transfected with a control vector (Neo) or with human Bcl-2 [Zhu et al., EMBO J. 15:4130-4141 (1996)] as described [Bossy-Wetzel et al., EMBO J. 17, 37-49 (1998)], whereas the DYm sensitive dye CMXRos (100 nM, red fluorescence) was used on live cells [Marzo et al., Science 281, 2027-2031 (1998)]. Cells were counterstained with the Hoechst 33342 dye (1 μM, blue fluorescence). […]

Jurkat cells = test: Transfection-enforced AIF overexpression in Jurkat cells; type: cell-based; conditions: 24 hours after transfection
Method: Jurkat cells were transiently transfected with pcDNA3.1 vector only (control) or mouse AIF cDNA (under the control of a cytomegalovirus promoter, see pcDNA3.1 vector from Invitrogen). After 24 hours of culture, cells were stained with the indicated fluorochromes to determine the frequency of apoptosis-associated alterations: loss of DYm (fluorochrome: DiOC(6)3), phosphatidylserine exposure (fluorochrome: Annexin V-FITC), or loss of nuclear DNA (fluorochrome: propidium iodide, PI, after ethanol permeabilization). Numbers refer to the percentage of cells bearing apoptotic characteristics. Results are representative of 3 different experiments.
as §2

For `O=C(O)CN(CCN(CC(=O)O)CC(=O)O)CC(=O)O` [EDTA], the “inhibition of AIF-induced large-scale DNA fragmentation” value (HeLa nuclei) was “inhibited”.

In the case of `COC(=O)C[C@H](NC(=O)[C@H](C)NC(=O)[C@@H](NC(=O)OCc1ccccc1)C(C)C)C(=O)CF` [Z-VAD.fmk] (Cbz-Val-Ala-Asp(OMe)-CH2F), the “inhibition of caspase-substrate-cleaving activity in supernatant of mitochondria treated with AIF plus cytosol” value (caspase) is reported as “Z-VAD.fmk-inhibitable”, the “inhibition of AIF-induced release of caspase-9” value (isolated mitochondria) is reported as “does not inhibit the release of caspase-9 but rather interferes with its proteolytic activation” and the “prevention of AIF effects on isolated nuclei or on mitochondria” value [1] is reported as “None of these AIF effects, either on isolated nuclei or on mitochondria, is prevented”. The “inhibition of effects mediated by microinjected AIF” value (Rat-1 cells [2]) was “None of the effects mediated by microinjected AIF is inhibited” and the “prevention of cytochrome c-induced apoptosis” value (Rat-1 cells [2]; microinjected cytochrome c) was “succeeds in preventing cytochrome c-induced, caspase-dependent apoptosis”.

With `C=C1[C@@H]2CC[C@H]3[C@]4(C)C[C@H](O[C@@H]5O[C@H](CO)[C@@H](OS(=O)(=O)O)[C@H](OS(=O)(=O)O)[C@H]5OC(=O)CC(C)C)C[C@@H](C(=O)O)[C@H]4CC[C@]3(C2)[C@H]1O` [atractyloside] the “release of 57 kDa AIF protein from mitochondria” value (from here on “release of 57 kDa AIF protein”) (mouse liver mitochondria) was “released upon PT pore opening” and the “retention of DYm-sensitive dye CMXRos by cells” value (Rat-1 cells [3]) was “do not retain the DYm-sensitive dye CMXRos”.

With `[Ca+2]` [calcium] the “release of 57 kDa AIF protein” value (mouse liver mitochondria) was “released upon PT pore opening”.

`O=S(=O)(O)c1cc[c]([Hg][Cl])cc1` [p-chloromercuryphenylsulfonic acid] was tested, and the “inhibition of AIF-induced large-scale DNA fragmentation” value (HeLa nuclei) was “inhibited”.

For `CN[C@@H]1C[C@H]2O[C@@](C)([C@@H]1OC)n1c3ccccc3c3c4c(c5c6ccccc6n2c5c31)C(=O)NC4` [staurosporine], the “cells with more advanced chromatin condensation and nuclear fragmentation (stage II)” value (Rat-1 fibroblasts) was ~20 % of cells, the “cells with partial chromatin condensation (stage I)” value (Rat-1 fibroblasts) was ~80 % of cells and the “retention of DYm-sensitive dye CMXRos by cells” value (Rat-1 cells [3]) was “do not retain the DYm-sensitive dye CMXRos”.

For `CC(C)(C)OO` [tert-butylhydroperoxide], the “release of 57 kDa AIF protein” value (mouse liver mitochondria) was “released upon PT pore opening”.

In the case of “immunogenic peptides: 3 peptides derived from the mAIF amino acid sequence (amino acid nos. 151-170, 166-185, 181-200) (peptide 1 LLIGGGTAAFAAARSIRARD; peptide 2 IRARDPGARVLIVSEDPELP; peptide 3 DPELPYMRPPLSKELWFSDD)”, the “inhibitory effect of AIF-specific antibody when co-injected with excess immunogenic peptides” value (Rat-1 cells [3]; 100 μM AIF-derived immunogenic peptides) is reported as “No such inhibitory effect is observed”.

B1: wild type AIF: AIF overexpressed in Jurkat cells by transient transfection of mouse AIF cDNA in pcDNA3.1 (protein, UniProt Q9Z0X1 1-612, looked up)
chain: MFRCGGLAGAFKQKLVPLVRTVYVQRPKQRNRLPGNLFQQWRVPLELQMARQMASSGSSGGKMDNSVLVLIVGLSTIGAGAYAYKTIKEDQKRYNERVMGLGLSPEEKQRRAIASATEGGSVPQIRAPSHVPFLLIGGGTAAFAAARSIRARDPGARVLIVSEDPELPYMRPPLSKELWFSDDPNVTKTLQFRQWNGKERSIYFQPPSFYVSAQDLPNIENGGVAVLTGKKVVHLDVRGNMVKLNDGSQITFEKCLIATGGTPRSLSAIDRAGAEVKSRTTLFRKIGDFRALEKISREVKSITVIGGGFLGSELACALGRKSQASGIEVIQLFPEKGNMGKILPQYLSNWTMEKVKREGVKVMPNAIVQSVGVSGGRLLIKLKDGRKVETDHIVTAVGLEPNVELAKTGGLEIDSDFGGFRVNAELQARSNIWVAGDAACFYDIKLGRRRVEHHDHAVVSGRLAGENMTGAAKPYWHQSMFWSDLGPDVGYEAIGLVDSSLPTVGVFAKATAQDNPKSATEQSGTGIRSESETESEASEITIPPSAPAVPQVPVEGEDYGKGVIFYLRDKVVVGIVLWNVFNRMPIARKIIKDGEQHEDLNEVAKLFNIHED
modifications: full-length
In the case of B1, the “apoptosis-associated alterations after AIF overexpression” value (Jurkat cells) is reported as “induces DYm collapse, phosphatidylserine exposure, and hypoploidy”.
